Measured values as given in patent US4216221A, “1,3-Disubstituted (2-thio)ureas” (U C B, Societe Anonyme, priority 1977, dated 1980).
Read-outs that look alike come from different tables or passages of the source.

Tests used:
[1] = Toxicity by intraperitoneal administration (Irwin's test); type: in vivo; details: for Dose mg/kg (dose which brings about the death of one animal out of eight in Irwin's test): mouse
Text: The compounds tested have a remarkably low toxicity.
*Dose which brings about the death of one animal out of eight in Irwin's
test (S. IRWIN, Gordon Research Conference on Medicinal Chemistry, Colby
Junior College, New London, 1959).

[2] = active avoidance test (memory retention; paw withdrawal reaction threshold); type: in vivo, rat; details: sc, rat, subcutaneous, tested 24 hours later
Text: The pressure at which the withdrawal reaction takes place is called the reaction threshold. This threshold is expressed by the figure read on a scale graduated in cm of the apparatus used (Analgesy-meter Ugo Basile, Milan) and thus corresponds to the minimum pressure which brings about withdrawal when applied to the animal's paw.

[3] = read-out: Active dose mM/kg (minimum dose lowering the stimulus below 11 graduations; mM = millimole)
[4] = read-out: Active dose mg/kg (minimum dose lowering the stimulus below 11 graduations)

Row | Compound | Dose mM/kg - mouse (dose which brings about the death of one animal out of eight in Irwin's test) [1] [mM/kg] | Dose mg/kg (dose which brings about the death of one animal out of eight in Irwin's test) [1] [mg/kg] | minimal effective dose [2, 3] [µmol/kg] | minimal effective dose [2, 4] [mg/kg]
1 | CCC(NC(=O)NC(CC)N1CCCC1=O)N1CCCC1=O (stereo not drawn) [Compound No. 10, 1,3-bis[1-(2-oxo-pyrrolidino)propyl]-urea] | > 3 | > 930 | – | –
2 | O=C1CCCCCN1CNC(=S)NCN1CCCCCC1=O [compound 36, 1,3-bis[(hexahydro-2-oxo-1H-azepin-1-yl)methyl]-2-thiourea] | – | – | 0.2 | 0.065
3 | CC1CC2(CCCCC2)C(=O)N1CNC(=O)NCN1C(=O)C2(CCCCC2)CC1C (stereo not drawn) [compound 17, 1,3-bis[(3-methyl-1-oxo-2-azaspiro[4.5]dec-2-yl)methyl]-urea] | 3 | 1255.8 | – | –
4 | O=C(NCN1CCCCCCCC1=O)NCN1CCCC1=O [Compound No. 29, 1-[(octahydro-2-oxo-1H-azonin-1-yl)methyl]-3-[(2-oxo-pyrrolidino)methyl]-urea] | 2 | 620 | – | –
5 | CC1(C)CCC(=O)N1CNC(=O)NCN1C(=O)CCC1(C)C [compound 35, 1,3bis[(5,5-dimethyl-2-oxo-pyrrolidine)methyl]-urea] | > 3 | > 930 | 0.02 | 0.0062
6 | O=C(NCN1CCCCCCC1=O)NCN1CCCC1=O [compound 33, 1-[(hexahydro-2-oxo-1(2H)-azocinyl)methyl]-3-[(2-oxo-pyrrolidino)methyl]-urea] | > 3 | > 888 | 5 | 1.48
7 | C=CCC1(c2ccccc2)CCN(CNC(=O)NCN2CCC(CC=C)(c3ccccc3)C2=O)C1=O (stereo not drawn) [compound 15, 1,3-bis[(3-allyl-2-oxo-3-phenyl-pyrrolidino)methyl]-urea] | > 3 | 1459.5 | 1 | 0.486
8 | O=C(NCN1CCCCCCCC1=O)NCN1CCCCCCCC1=O [Compound No. 6, 1,3-bis[(octahydro-2-oxo-1H-azonin-1-yl)methyl]-urea] | > 3 | 1099.5 | 5 | 1.83
9 | O=C(NCN1C(=O)CCC1c1ccccc1)NCN1C(=O)CCC1c1ccccc1 (stereo not drawn) [Compound No. 9, 1,3-bis[(2-oxo-5-phenyl-pyrrolidino)methyl]-urea] | 1 | 406 | – | –
10 | O=C(NCN1CC(c2ccccc2)CC1=O)NCN1CC(c2ccccc2)CC1=O (stereo not drawn) [compound 12, 1,3-bis[(2-oxo-4-phenyl-pyrrolidino)methyl]-urea] | > 3 | 1215 | – | –
11 | O=C(NCN1CCCCCCC1=O)NCN1CCCCCCC1=O [Compound No. 5, 1,3bis[(hexahydro-2-oxo-1(2H)-azocinyl)methyl]-urea] | 3 | 1004 | 1 | 0.338
12 | CC1CC2(CCCCC2)C(=O)N1CNC(=O)NCN1CCCC1=O (stereo not drawn) [compound 31, 1-[(3-methyl-1-oxo-azaspiro[4.5]dec-2-yl)methyl]-3-[(2-oxo-pyrrolidino)-methyl]-urea] | 2 | 672.8 | – | –
13 | CCCCC1CCN(CNC(=S)NCN2CCC(CCCC)C2=O)C1=O (stereo not drawn) [compound 27, 1,3-bis[(3-n-butyl-2-oxo-pyrrolidino)methyl]-2-thiourea] | – | – | 0.01 | 0.0038
14 | O=C(NCN1CC(c2ccc(Cl)cc2)CCC1=O)NCN1CC(c2ccc(Cl)cc2)CCC1=O (stereo not drawn) [compound 16, 1,3-bis[(5-p-chlorophenyl-2-oxo-piperidino)methyl]-urea] | > 3 | 1510.2 | – | –
15 | CCC1(c2ccccc2)CCN(CNC(=O)NCN2CCC(CC)(c3ccccc3)C2=O)C1=O (stereo not drawn) [compound 13, 1,3-bis[(3-ethyl-2-oxo-3-phenyl-pyrrolidino)methyl]-urea] | > 3 | 1387.5 | – | –
16 | O=C(NC(c1ccccc1)N1CCCC1=O)NC(c1ccccc1)N1CCCC1=O (stereo not drawn) [compound 19, 1,3-bis[alpha-(2-oxo-pyrrolidino)-benzyl]-urea] | > 3 | > 1219 | – | –
17 | O=C1CCCN1CNC(=S)NCN1CCCC1=O [compound 25, 1,3-bis[(2-oxo-pyrrolidino)methyl]-2-thiourea] | > 3 | > 804 | 1 | 0.268
18 | O=C(NCN1CCCCC1=O)NCN1CCCCC1=O [Compound No. 3, 1,3-bis[(2-oxo-piperidino)methyl]-urea] | – | – | 0.2 | 0.056
19 | CCCCC1CCN(CNC(=O)NCN2CCC(CCCC)C2=O)C1=O (stereo not drawn) [compound 30, 1,3-bis[(3-n-butyl-2-oxo-pyrrolidino)methyl]-urea] | > 3 | > 10009.5 | – | –
20 | CC(CNC(=O)NCC(C)N1CCCC1=O)N1CCCC1=O (stereo not drawn) [compound 21, 1,3-bis[2-(2-oxo-pyrrolidino)propyl]-urea] | > 3 | > 930 | 0.01 | 0.0031
